The text below walks through data of patent US20110015241A1, “SUBSTITUTED HETEROCYCLES AND USE THEREOF” (BAYER SCHERING PHARMA AKTIENGESELLSCHAFT, priority 2006, published 2011).

This experiment deals with T1, human factor Xa (Homo sapiens, UniProt P00742).
T1 construct: factor Xa, which is formed from the proenzyme factor X
Description: Determination of the factor Xa inhibition (fluorogenic substrate Boc-Ile-Glu-Gly-Arg-AMC). The conditions noted are these: 15 min preincubation at 22° C., substrate 5 μmol/l, pH 7.4, fluorescence 360/460 nm. Type of experiment: biochemical. On the procedure: In order to determine the factor Xa inhibition of the substances listed above, a biochemical test system is set up, in which the conversion of a factor Xa substrate is used to determine the enzymatic activity of human factor Xa. Factor Xa cleaves aminomethylcoumarin, whose fluorescence is measured, from the peptidic substrate. The determinations are carried out in microtitre plates.
Substances to be tested, in various concentrations, are dissolved in dimethyl sulphoxide and incubated for 15 min at 22° C. with human Factor Xa ([…] dissolved in 50 mmol/l of Tris buffer [C,C,C-tris(hydroxymethyl)aminomethane], 100 mmol/l NaCl, 0.1% BSA [bovine serum albumin], pH 7.4). The substrate (5 μmol/l of Boc-Ile-Glu-Gly-Arg-AMC from Bachem) is then added. After an incubation time of 30 min, the sample is excited at a wavelength of 360 nm, and the emission at 460 nm is measured. The measured emissions of the test batches with test substance are compared to the control batches without test substance (only dimethyl sulphoxide instead of test substance in dimethyl sulphoxide), and IC50 values are calculated from the concentration/activity relationships.

Each structure is given as a SMILES string. pIC50: −log10 of the molar value. Counter-ions that a name gives are not always drawn.

T1 sequence (P00742 235-488 limits assumed): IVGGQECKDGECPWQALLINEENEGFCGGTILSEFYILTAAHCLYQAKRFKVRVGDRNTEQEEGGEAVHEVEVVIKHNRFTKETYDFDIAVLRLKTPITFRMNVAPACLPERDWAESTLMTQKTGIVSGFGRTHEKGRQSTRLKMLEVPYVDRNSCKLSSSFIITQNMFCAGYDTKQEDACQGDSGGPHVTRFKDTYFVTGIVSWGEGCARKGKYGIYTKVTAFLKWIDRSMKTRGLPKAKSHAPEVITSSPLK
T1 sequence (P00742 41-179 partner limits assumed): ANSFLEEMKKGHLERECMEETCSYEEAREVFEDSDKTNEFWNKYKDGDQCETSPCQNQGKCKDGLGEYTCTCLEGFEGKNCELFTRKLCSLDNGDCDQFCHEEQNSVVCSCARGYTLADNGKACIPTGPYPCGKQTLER

Broadly, the pIC50 is the IC50 on a negative log10 scale, so that one unit is a factor of ten. High values mean a small IC50, low ones a large IC50. With `N=C1OCCN1c1ccc(C2=NOC(CNC(=O)c3ccc(Cl)s3)C2)cc1` (centres unmarked) [Example 1, 5-Chloro-N-({3-[4-(2-imino-1,3-oxazolidin-3-yl)phenyl]-4,5-dihydroisoxazol-5-yl}methyl)thiophene-2-carboxamide], the pIC50 is 8.10.
Take `N=C1OCCN1c1ccc(-n2cc(CNC(=O)c3ccc(Cl)s3)c(-c3ccccc3)n2)cc1` [Example 2, 5-Chloro-N-({1-[4-(2-imino-1,3-oxazolidin-3-yl)phenyl]-3-phenyl-1H-pyrazol-4-yl}methyl)thiophene-2-carboxamide hydrochloride]: the pIC50 is 8.85.
